Measurements as given in PubChem BioAssay (NCI).
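Each compound was tested at five concentrations against cells in 96-well plates for 48 hours. GI50 marks 50% less growth. At the TGI there is no net growth.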

Legend:
Experiment in all cases: inhibition of tumour cell growth, NCI panel, 48 h
[1] = system: 786-0 renal
[2] = system: A498 renal
[3] = system: A549 NSCLC
[4] = system: ACHN renal
[5] = system: BT-549 breast
[6] = system: CAKI-1 renal
[7] = system: CCRF-CEM leukemia
[8] = system: COLO 205 colon
[9] = system: DU-145 prostate
[10] = system: EKVX NSCLC
[11] = system: HCC-2998 colon
[12] = system: HCT-116 colon
[13] = system: HCT-15 colon
[14] = system: HL-60(TB) leukemia
[15] = system: HOP-62 NSCLC
[16] = system: HOP-92 NSCLC
[17] = system: HS 578T breast
[18] = system: HT29 colon
[19] = system: IGROV1 ovarian
[20] = system: K-562 leukemia
[21] = system: KM12 colon
[22] = system: M14 melanoma
[23] = system: MALME-3M melanoma
[24] = system: MCF7 breast
[25] = system: MDA-MB-231 breast
[26] = system: MDA-MB-435
[27] = system: MOLT-4 leukemia
[28] = system: NCI-H226 lung
[29] = system: NCI-H23 lung
[30] = system: NCI-H460 lung
[31] = system: NCI-H522 lung
[32] = system: NCI/ADR-RES ovarian
[33] = system: OVCAR-3 ovarian
[34] = system: OVCAR-4 ovarian
[35] = system: OVCAR-5 ovarian
[36] = system: OVCAR-8 ovarian
[37] = system: PC-3 prostate
[38] = system: RPMI-8226 leukemia
[39] = system: RXF 393 renal
[40] = system: SF-268 CNS
[41] = system: SF-295 CNS
[42] = system: SF-539 CNS
[43] = system: SK-MEL-2 melanoma
[44] = system: SK-MEL-28 melanoma
[45] = system: SK-MEL-5 melanoma
[46] = system: SK-OV-3 ovarian
[47] = system: SN12C renal
[48] = system: SNB-19 CNS
[49] = system: SNB-75 CNS
[50] = system: SR leukemia
[51] = system: SW-620 colon
[52] = system: T-47D breast
[53] = system: TK-10 renal
[54] = system: U251 CNS
[55] = system: UACC-257 melanoma
[56] = system: UACC-62 melanoma
[57] = system: UO-31 renal
[58] = system: LOX IMVI melanoma

CCN(CC)Cc1cc(Nc2c3ccccc3nc3c4ccccc4n(C)c23)cc(CN(CC)CC)c1O
TGI [1]: 14.9 µM | TGI [2]: 18.4 µM | TGI [3]: 31.9 µM | TGI [4]: 13.8 µM | TGI [5]: 11.1 µM | TGI [6]: 29.2 µM | TGI [7]: 14.2 µM | TGI [8]: 10.8 µM | TGI [9]: 23.3 µM | TGI [10]: 21.4 µM | TGI [11]: 19.2 µM | TGI [12]: 11 µM | TGI [13]: 14.4 µM | TGI [14]: 12.2 µM | TGI [15]: 20.4 µM | TGI [16]: 17.2 µM | TGI [17]: 26.6 µM | TGI [18]: 11.8 µM | TGI [19]: 24.6 µM | TGI [20]: > 35 µM | TGI [21]: 20.7 µM | TGI [22]: 3.37 µM | TGI [23]: 5.25 µM | TGI [24]: 19.3 µM | TGI [25]: 13.4 µM | TGI [26]: 10.2 µM | TGI [27]: > 33.3 µM | TGI [28]: 18.4 µM | TGI [29]: 27 µM | TGI [30]: 16 µM | TGI [31]: 4.77 µM | TGI [32]: 8.89 µM | TGI [33]: 11.2 µM | TGI [34]: 18 µM | TGI [35]: 22.1 µM | TGI [36]: 20.8 µM | TGI [37]: 11.8 µM | TGI [38]: > 100 µM | TGI [39]: 10.1 µM | TGI [40]: 28.8 µM | TGI [41]: 17.6 µM | TGI [42]: 15.2 µM | TGI [43]: 7.6 µM | TGI [44]: 6.34 µM | TGI [45]: 3.72 µM | TGI [46]: 32.5 µM | TGI [47]: 20.4 µM | TGI [48]: 27.4 µM | TGI [49]: 25.2 µM | TGI [50]: 10.7 µM | TGI [51]: 13.3 µM | TGI [52]: 15.7 µM | TGI [53]: 28.1 µM | TGI [54]: 20.1 µM | TGI [55]: 7.07 µM | TGI [56]: 10.4 µM | TGI [57]: 6.68 µM

CCN1CCN(c2cc(C)nc(N(CCNc3ccnc4cc(Cl)ccc34)Cc3ccc4c(c3)OCO4)n2)CC1
GI50 [1]: 1.49 µM | TGI [1]: 2.9 µM | GI50 [2]: 1.5 µM | TGI [2]: 3.3 µM | GI50 [3]: 2.13 µM | TGI [3]: 4.93 µM | GI50 [4]: 1.86 µM | TGI [4]: 4.39 µM | GI50 [5]: 1.54 µM | TGI [5]: 3.13 µM | GI50 [7]: 0.728 µM | TGI [7]: 4.69 µM | GI50 [8]: 1.51 µM | TGI [8]: 3.26 µM | GI50 [9]: 2.23 µM | TGI [9]: 7.25 µM | GI50 [10]: 2.33 µM | TGI [10]: 7.91 µM | GI50 [11]: 2.09 µM | TGI [11]: 4.22 µM | GI50 [12]: 1.03 µM | TGI [12]: 2.39 µM | GI50 [13]: 0.875 µM | TGI [13]: 2.69 µM | GI50 [14]: 1.9 µM | TGI [14]: 3.84 µM | GI50 [15]: 1.94 µM | TGI [15]: 5.21 µM | GI50 [16]: 1.21 µM | TGI [16]: 3.71 µM | GI50 [17]: 1.79 µM | TGI [17]: 4.15 µM | GI50 [18]: 1.16 µM | TGI [18]: 3.71 µM | GI50 [19]: 1.48 µM | TGI [19]: 3.92 µM | GI50 [20]: 0.355 µM | TGI [20]: 1.7 µM | GI50 [21]: 1.8 µM | TGI [21]: 5.97 µM | GI50 [58]: 1.5 µM | TGI [58]: 2.89 µM | GI50 [22]: 1.49 µM | TGI [22]: 2.95 µM | GI50 [23]: 1.67 µM | TGI [23]: 3.37 µM | GI50 [24]: 1.19 µM | TGI [24]: 2.83 µM | GI50 [25]: 1.37 µM | TGI [25]: 3 µM | GI50 [26]: 1.48 µM | TGI [26]: 2.9 µM | GI50 [27]: 0.728 µM | TGI [27]: 3.1 µM | GI50 [28]: 2.43 µM | TGI [28]: 7.05 µM | GI50 [29]: 1.88 µM | TGI [29]: 5.01 µM | GI50 [30]: 1.77 µM | TGI [30]: 3.61 µM | GI50 [31]: 1.58 µM | TGI [31]: 3.18 µM | GI50 [32]: 1.6 µM | TGI [32]: 3.51 µM | GI50 [33]: 1.2 µM | TGI [33]: 2.64 µM | GI50 [34]: 1.93 µM | TGI [34]: 6.18 µM | GI50 [35]: 2.53 µM | TGI [35]: 6.51 µM | GI50 [36]: 1.64 µM | TGI [36]: 3.36 µM | GI50 [37]: 1.98 µM | TGI [37]: 7 µM | GI50 [38]: 1.2 µM | TGI [38]: 3.37 µM | GI50 [39]: 0.688 µM | TGI [39]: 2.12 µM | GI50 [40]: 1.8 µM | TGI [40]: 3.72 µM | GI50 [41]: 1.45 µM | TGI [41]: 2.98 µM | GI50 [42]: 1.52 µM | TGI [42]: 3.12 µM | GI50 [43]: 1.63 µM | TGI [43]: 3.15 µM | GI50 [44]: 1.72 µM | TGI [44]: 3.5 µM | GI50 [45]: 1.56 µM | TGI [45]: 2.93 µM | GI50 [46]: 2.12 µM | TGI [46]: 5.34 µM | GI50 [47]: 1.83 µM | TGI [47]: 3.71 µM | GI50 [48]: 2.67 µM | TGI [48]: 8.49 µM | GI50 [49]: 1.33 µM | TGI [49]: 2.72 µM | GI50 [50]: 0.189 µM | TGI [50]: 0.544 µM | GI50 [51]: 1.58 µM | TGI [51]: 3.45 µM | GI50 [52]: 1.99 µM | TGI [52]: 4.96 µM | GI50 [54]: 1.49 µM | TGI [54]: 3.16 µM | GI50 [55]: 2.05 µM | TGI [55]: 3.88 µM | GI50 [56]: 1.83 µM | TGI [56]: 3.63 µM | GI50 [57]: 1.36 µM | TGI [57]: 3.3 µM
